Measurements as given in patent US9321750B2, “ROR modulators and their uses” (INNOV17 LLC, priority 2012, dated 2016).

Assays:
IL-17A [1] = experiment: TH17 cytokine inhibition as measured by ELISA: IL-17A; assay type: cell-based; details: 120 h; human TH17 cells, 5 days differentiation, ELISA of supernatant
Method: (§1) Peripheral blood mononuclear cells (PBMCs) were sourced from freshly prepared leukocyte enriched plasma (buffy coat) from healthy volunteers from which PBMCs were isolated by density gradient centrifugation using Ficoll-Paque™ PLUS (GE Healthcare). Naïve CD4+ T cells were isolated using the Naïve CD4+ T cell Isolation Kit II (Miltenyi Biotec) as per manufacturer's instructions. CD4+ T cells were plated at 5×10^4 cells/well in 96 well plates pre-coated with immobilized human (h)-αCD3 antibody (eBioscience) then differentiated to TH17 cells using h-αCD28, h-αIFNγ, h-αIL4, h-IL6, h-IL23, h-IL1β, h-TGFβ1 (eBioscience) and maintained in a cell culture incubator at 37° C. with 5% CO2 in TexMACS Medium (Miltenyi Biotec) supplemented with 1% Penicillin/Streptomycin (Lonza) over 5 days.
(§2) Human CD4+ T cells were differentiated to TH17 cells as described in the presence or absence of various concentrations of compounds in a final concentration of 0.1% DMSO in TexMACS medium. Supernatants were collected and stored at −20° C. until they were to be assayed for IL-17A, IL-17F, IL-17AF, IL-21 and/or IL-22 levels as determined by Ready-Set-Go ELISA kits (eBioscience) as per manufacturer's instructions. Endpoint absorbance was read at 450 nm and 570 nm according to manufacturer's instructions (eBioscience) using a microplate reader (Perkin Elmer). The percentage of cytokine inhibition was calculated with reference to DMSO treated cells and the IC50s were determined by GraphPad Prism software and presented in the table below.

IL-17F [2] = experiment: TH17 cytokine inhibition as measured by ELISA: IL-17F; assay type: cell-based; details: 120 h; human TH17 cells, 5 days differentiation, ELISA of supernatant
Method: as §1, §2

IL-22 [3] = experiment: TH17 cytokine inhibition as measured by ELISA: IL-22; assay type: cell-based; details: 120 h; human TH17 cells, 5 days differentiation, ELISA of supernatant
Method: as §1, §2

[4] = TH17 cell viability (Prestoblue); assay type: cell-based; set-up: concentration or dose not given beside the values; details: human; percentage of DMSO treated cells; read-out: % viability of compound treated TH17 cells
Method: as §1
Cells were assayed for viability in the presence or absence of compound using Prestoblue® Cell Viability Reagent (Life Technologies) as per manufacturer's instructions after 30 minutes incubation of TH17 cells with reagent. Absorbance was measured at 570 nm and 600 nm using a microplate reader (Perkin Elmer) and data were analyzed as per manufacturer's instructions. Cell viability was expressed as a percentage of DMSO treated cells.

TH17 cells = experiment: TH17 cellular proliferation (Prestoblue); assay type: cell-based; details: Homo sapiens, 120 h; 3 μM compound, after 5 day TH17 differentiation, relative to DMSO treated TH17 cells; read-out: % change in TH17 cell number
Method: as §1
Cellular proliferation was assessed in the presence or absence of 3 μM compound using Prestoblue® Cell Viability Reagent (Life Technologies) as per manufacturer's instructions using absorbance as the output measured by a microplate reader (Perkin Elmer) after 30 minutes of incubation of cells and reagent. A standard curve developed by plotting varying cell numbers versus absorbance was used to assess differences in cellular proliferation between compound treated or untreated cells after the 5 day TH17 differentiation period.

IL-17A [5] = experiment: Real-time qRT-PCR in TH17 cells: IL-17A gene expression; assay type: cell-based, human; set-up: key: A: No change in gene expression observed relative to DMSO treated Th17 cells; B: Decreased gene expression observed relative to DMSO treated Th17 cells; C: Increased gene expression observed relative to DMSO treated Th17 cells
Method: as §1
(§3) RNA was isolated from TH17 cells and cDNA was synthesized using the Verso cDNA kit (Thermo Scientific) as per manufacturer's instructions. IL-17A, IL-17F, IL-21, IL-22, G-CSF, IL-23R and FOXP3 gene expression were determined for compound treated and untreated TH17 cell samples using Solaris qPCR Gene expression assays (Thermo Scientific) with an iCycler iQ Real-Time PCR Detection System (Bio-Rad). Individual gene expression was normalized to a panel of six reference genes (ACTB, TBP, HPRT1, PGK1, TFRC and PPIA) (Thermo Scientific) and analyzed by REST 2009 (Qiagen) in accordance to MIQE guidelines (Bustin et al. (2009) Clin. Chem, 55:611-622). The effects of compounds on TH17 cytokine mRNA levels are presented as fold change in gene expression of compound treated TH17 cells relative to DMSO treated cells in the table below.

IL-17F [6] = experiment: Real-time qRT-PCR in TH17 cells: IL-17F gene expression; assay type: cell-based, human; set-up: key: A: No change in gene expression observed relative to DMSO treated Th17 cells; B: Decreased gene expression observed relative to DMSO treated Th17 cells; C: Increased gene expression observed relative to DMSO treated Th17 cells
Method: as §1, §3

IL-22 [7] = experiment: Real-time qRT-PCR in TH17 cells: IL-22 gene expression; assay type: cell-based, human; set-up: key: A: No change in gene expression observed relative to DMSO treated Th17 cells; B: Decreased gene expression observed relative to DMSO treated Th17 cells; C: Increased gene expression observed relative to DMSO treated Th17 cells
Method: as §1, §3

IL-21 = experiment: Real-time qRT-PCR in TH17 cells: IL-21 gene expression; assay type: cell-based, human; set-up: key: A: No change in gene expression observed relative to DMSO treated Th17 cells; B: Decreased gene expression observed relative to DMSO treated Th17 cells; C: Increased gene expression observed relative to DMSO treated Th17 cells
Method: as §1, §3

IL-23R = experiment: Real-time qRT-PCR in TH17 cells: IL-23R gene expression; assay type: cell-based, human; set-up: key: A: No change in gene expression observed relative to DMSO treated Th17 cells; B: Decreased gene expression observed relative to DMSO treated Th17 cells; C: Increased gene expression observed relative to DMSO treated Th17 cells
Method: as §1, §3

FOXP3 = experiment: Real-time qRT-PCR in TH17 cells: FOXP3 gene expression; assay type: cell-based, human; set-up: key: A: No change in gene expression observed relative to DMSO treated Th17 cells; B: Decreased gene expression observed relative to DMSO treated Th17 cells; C: Increased gene expression observed relative to DMSO treated Th17 cells
Method: as §1, §3

RORγ LBD [8] = target: T1, RORγ LBD (Homo sapiens (Human), UniProt P51449); experiment: TR-FRET co-activator D22 interaction with RORγ LBD; assay type: biochemical
Excerpt: (§4) The Time-Resolved Fluorescence Resonance Energy Transfer (TR-FRET) assay kit (Life Technologies) was used to measure compound efficacy to disrupt or enhance ligand-mediated interaction of the co-activator and co-repressor peptides with the purified GST-tagged (i) RORγ LBD or (ii) […]. The RORγ LBD and RORα LBD each have a basal level of interaction with the co-activator D22 or co-repressor NCoR1-D2 in the absence of ligand, thus it is possible to identify compounds that inhibit or induce RORγ and/or RORα co-activator/co-repressor interactions, thus determining RORα, RORγ, or RORα/RORγ compound selectivity. The assay was performed as per manufacturer's instructions and TR-FRET was assessed 2 and 20 hours post-assay initiation. Compounds were identified to (i) have no impact on either co-activator displacement or […] from the assessed LBD (ii) promote co-activator displacement from the assessed LBD (iii) promote co-repressor recruitment to the assessed LBD or (iv) concurrently promote co-activator displacement from the assessed LBD and co-repressor recruitment to the assessed LBD.

RORγ LBD [9] = target: T1, RORγ LBD; experiment: TR-FRET co-repressor NCoR1-D2 interaction with RORγ LBD; assay type: biochemical
Excerpt: as §4

RORα LBD [10] = target: T2, RORα LBD (Homo sapiens (Human), UniProt P35398); experiment: TR-FRET co-activator D22 interaction with RORα LBD; assay type: biochemical
Excerpt: as §4

RORα LBD [11] = target: T2, RORα LBD; experiment: TR-FRET co-repressor NCoR1-D2 interaction with RORα LBD; assay type: biochemical
Excerpt: as §4

IL-17AF = experiment: TH17 cytokine inhibition as measured by ELISA: IL-17AF; assay type: cell-based; details: 120 h; human TH17 cells, 5 days differentiation, ELISA of supernatant
Method: as §1, §2

RORγ LBD [12] = target: T1, RORγ LBD; experiment: RORγ LBD binding (Human RORγ Assay System, INDIGO Biosciences); details: 0.5% DMSO
Method: Compound binding to the human RORγ LBD was assessed using the Human RORγ Assay System (INDIGO Biosciences Inc.) as per manufacturer's instructions.

[13] = 2 hr, read-out: RORγ EC50 D22 co-activator displacement 2 hr
[14] = 20 hr, read-out: RORγ EC50 D22 co-activator displacement 20 hr
[15] = 2 hr, read-out: RORγ EC50 NCoR1-D2 co-repressor recruitment 2 hr
[16] = 20 hr, read-out: RORγ EC50 NCoR1-D2 co-repressor recruitment 20 hr
[17] = 2 hr, read-out: RORα EC50 D22 co-activator displacement 2 hr
[18] = 20 hr, read-out: RORα EC50 D22 co-activator displacement 20 hr
[19] = 2 hr, read-out: RORα EC50 NCoR1-D2 co-repressor recruitment 2 hr
[20] = 20 hr, read-out: RORα EC50 NCoR1-D2 co-repressor recruitment 20 hr

T2 sequence (P35398 272-510): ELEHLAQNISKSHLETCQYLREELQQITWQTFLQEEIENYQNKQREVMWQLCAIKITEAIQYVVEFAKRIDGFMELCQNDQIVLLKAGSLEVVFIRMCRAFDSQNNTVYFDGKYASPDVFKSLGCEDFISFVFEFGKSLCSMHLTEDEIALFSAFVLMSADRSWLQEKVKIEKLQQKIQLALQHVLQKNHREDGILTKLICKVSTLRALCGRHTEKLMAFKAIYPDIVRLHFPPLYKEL
T1 sequence (P51449 269-508): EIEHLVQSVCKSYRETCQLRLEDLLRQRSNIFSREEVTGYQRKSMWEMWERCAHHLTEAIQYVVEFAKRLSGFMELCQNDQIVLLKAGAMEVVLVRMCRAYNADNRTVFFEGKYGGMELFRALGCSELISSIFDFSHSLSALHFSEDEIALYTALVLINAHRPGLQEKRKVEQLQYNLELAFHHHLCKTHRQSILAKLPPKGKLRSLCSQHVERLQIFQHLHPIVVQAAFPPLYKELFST

SMILES | IC50 (IL-17A [1]) [µM] | IC50 (IL-17F [2]) [µM] | viability [4] [%] | inhibition at 3 µM (TH17 cells) [%] | EC50 (RORγ LBD [8]; [13]) [µM] | EC50 (RORγ LBD [8]; [14]) [µM] | EC50 (RORγ LBD [9]; [15]) [µM] | EC50 (RORγ LBD [9]; [16]) [µM] | EC50 (RORα LBD [10]; [17]) [µM] | EC50 (RORα LBD [10]; [18]) [µM] | EC50 (RORα LBD [11]; [19]) [µM] | EC50 (RORα LBD [11]; [20]) [µM] | further results
CS(=O)(=O)Nc1ccc2c(c1)CCC(=O)N2Cc1ccc(C(O)(C(F)(F)F)C(F)(F)F)cc1 [Example 6, N-(1-(4-(1,1,1,3,3,3-hexafluoro-2-hydroxypropan-2-yl)benzyl)-2-oxo-1,2,3,4-tetrahydroquinolin-6-yl)methanesulfonamide] | < 10 | < 10 | > 80 | ≤ 50 | > 30 | > 30 | < 30 | > 30 | < 30 | < 30 | > 30 | > 30 | IC50 (IL-22 [3]): < 10 µM; Fold change in mRNA level of compound treated TH17 cells relative to DMSO treated cells IL-17A (IL-17A [5]): A; Fold change in mRNA level of compound treated TH17 cells relative to DMSO treated cells IL-17F (IL-17F [6]): B; Fold change in mRNA level of compound treated TH17 cells relative to DMSO treated cells IL-22 (IL-22 [7]): A; Fold change in mRNA level of compound treated TH17 cells relative to DMSO treated cells IL-21 (IL-21): A; Fold change in mRNA level of compound treated TH17 cells relative to DMSO treated cells IL-23R (IL-23R): A; Fold change in mRNA level of compound treated TH17 cells relative to DMSO treated cells FOXP3 (FOXP3): A
CC(=O)Nc1ccc2c(c1)CCC(=O)N2Cc1ccc(C(O)(C(F)(F)F)C(F)(F)F)cc1 [Example 3, N-(1-(4-(1,1,1,3,3,3-hexafluoro-2-hydroxypropan-2-yl)benzyl)-2-oxo-1,2,3,4-tetrahydroquinolin-6-yl)acetamide] | < 10 | < 10 | > 80 | ≤ 50 | > 30 | < 30 | > 30 | < 30 | > 30 | > 30 | > 30 | > 30 | IC50 (IL-17AF): > 10 µM; IC50 (RORγ LBD [12]): > 10 µM
